Legend:
[1] = format: binding; settings: pH 8
[2] = design: method as in PMID 22488789; settings: cited from earlier work

For cholera toxin B-subunit [Wild-type], the Kd [1] is given as 43 ± 8 nM and the “Lewis-y glycan binding (result in words)” value [2] is given as “very low affinity”.
